In patent US20260042755A1, “GPR6 INVERSE AGONISTS” (MapLight Therapeutics, Inc., priority 2022, published 2026):

Legend:
GPR3 = target: T1, GPR3 (Homo sapiens, UniProt P46089); assay: GPR3 antagonist functional cAMP assay (LANCE Ultra cAMP TR-FRET, CHO cells stably expressing GPR3); format: cell-based
T1 construct: expressed in transfected cells; host or cells: CHO cells
Method in brief: (§1)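 Stable CHO-GPR6 or CHO-GPR3 cells (10,000/well) in Krebs-Ringer buffer with 0.1% BSA and 150 μM Ro 20-1724 were exposed to compounds for 45 min at 37° C (0.1% DMSO). cAMP read by LANCE Ultra TR-FRET; IC50 from 4-parameter fit normalized to DMSO and reference compounds.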

GPR6 = target: T2, GPR6 (Homo sapiens, UniProt P46095); assay: GPR6 antagonist functional cAMP assay (LANCE Ultra cAMP TR-FRET, CHO cells stably expressing GPR6); format: cell-based
T2 construct: expressed in transfected cells; host or cells: CHO cells
T2 sequence (P46095 whole entry): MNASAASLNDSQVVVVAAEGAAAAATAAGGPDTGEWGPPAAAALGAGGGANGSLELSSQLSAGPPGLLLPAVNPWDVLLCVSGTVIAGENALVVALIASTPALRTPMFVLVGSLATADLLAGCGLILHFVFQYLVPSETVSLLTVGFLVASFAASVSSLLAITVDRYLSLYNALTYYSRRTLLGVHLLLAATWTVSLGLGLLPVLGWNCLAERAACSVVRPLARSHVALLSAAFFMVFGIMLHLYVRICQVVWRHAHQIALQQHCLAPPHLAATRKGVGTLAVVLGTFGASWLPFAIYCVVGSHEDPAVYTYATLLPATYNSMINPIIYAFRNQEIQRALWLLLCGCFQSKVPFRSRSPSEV
Method in brief: as §1

[1] = CHO cells stably expressing GPR3, cAMP assay (Example 24)
[2] = CHO cells stably expressing GPR6, cAMP assay (Example 24)
[3] = CHO cells stably expressing GPR3, cAMP assay
[4] = CHO cells stably expressing GPR6, cAMP assay

T1 sequence (P46089 whole entry, species assumed): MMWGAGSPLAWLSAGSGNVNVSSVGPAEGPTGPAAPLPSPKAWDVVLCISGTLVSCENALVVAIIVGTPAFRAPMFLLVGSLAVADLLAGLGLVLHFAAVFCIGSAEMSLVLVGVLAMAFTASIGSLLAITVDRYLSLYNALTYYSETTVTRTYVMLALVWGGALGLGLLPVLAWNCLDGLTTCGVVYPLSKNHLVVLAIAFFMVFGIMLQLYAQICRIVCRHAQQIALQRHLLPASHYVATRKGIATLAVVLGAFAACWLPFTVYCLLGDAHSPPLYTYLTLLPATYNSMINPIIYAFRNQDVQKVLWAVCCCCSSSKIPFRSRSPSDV

IC50 (GPR3; [1]) [µM]	IC50 (GPR6; [2]) [µM]	IC50 (GPR3; procedure of Example 24) [µM]	IC50 (GPR6; procedure of Example 24) [µM]	Compound	further results
1 to 30	1 to 30			1-(3-{6-acetyl-2-[4-(2,4- difluorophenoxy)piperidin- 1-yl]-5H,6H,7H,8H- pyrido[3,4-b]pyrazin-3- yl}-4H,5H,6H,7H- pyrazolo[1,5-a]pyrazin-5- yl)ethan-1-one [Compound 106]	
1 to 30	1 to 30			CC(=O)N1CCc2nc(N3CCC(Oc4cccc(F)c4F)CC3)c(-c3cnn(C)c3)nc2C1 [Compound 423, 1-{2-[4-(2,3-difluorophenoxy)piperidin-1-yl]-3-(1-methyl-1H-pyrazol-4-yl)-5H,6H,7H,8H-pyrido[3,4-b]pyrazin-6-yl}ethan-1-one]	
		1 to 30	1 to 30	Cn1cc(-c2nc3cnccc3nc2N2CC[C@H](Oc3ccc(F)cc3F)[C@H](F)C2)cn1 (single isomer, unassigned) [Compound 332]	
1 to 30	1 to 30			CC(C)OC(=O)N1CCc2nc(N3CCC(Oc4ccc(F)cc4F)CC3)c(-c3cnn(C4CCCCO4)c3)nc2C1 (centres unmarked) [Compound 156, propan-2-yl 2-[4-(2,4-difluorophenoxy)piperidin-1-yl]-3-[1-(oxan-2-yl)-1H-pyrazol-4-yl]-5H,6H,7H,8H-pyrido[3,4-b]pyrazine-6-carboxylate]	
		1 to 30	< 0.1	CC(C)(O)[C@H](O)c1cc2nc(N3CCC(=Cc4ccc(F)cc4F)CC3)c(-c3cnn(CF)c3)nc2cn1 (single isomer, unassigned) [Compound 784]	
		1 to 30	< 0.1	CCn1cc(-c2nc3c(nc2N2CCC(Oc4ccc(F)cc4F)CC2)CCN(C(=O)N(C)C)C3)cn1 [Compound 300, 2-[4-(2,4-difluorophenoxy)piperidin-1-yl]-3-(1-ethyl-1H-pyrazol-4-yl)-N,N-dimethyl-5H,6H,7H,8H-pyrido[3,4-b]pyrazine-6-carboxamide]	
		1 to 30	0.1 to 1	CC(C)(O)[C@](C)(O)c1cc2nc(-c3cnn(C4CC4)c3)c(N3CCN(Cc4ccc(F)cc4F)CC3)nc2cn1 [Compound 683, (R)-2-[2-(1-cyclopropyl-4-pyrazolyl)-3-{4-[(2,4-difluorophenyl)methyl]-1-piperazinyl}-1,4,6-triaza-7-naphthyl]-3-methyl-2,3-butanediol]	
1 to 30	1 to 30			CCn1cnc(-c2nc3c(nc2N2CCC(Oc4ccc(F)cc4F)CC2)CCN(C(C)=O)C3)c1 [Compound 476, 1-{2-[4-(2,4-difluorophenoxy)piperidin-1-yl]-3-(1-ethyl-1H-imidazol-4-yl)-5H,6H,7H,8H-pyrido[3,4-b]pyrazin-6-yl}ethan-1-one]	

Further lines, the compound ahead of its results:

Compound	IC50 (GPR3; [1]) [µM]	IC50 (GPR6; [2]) [µM]	IC50 (GPR3; procedure of Example 24) [µM]	IC50 (GPR6; procedure of Example 24) [µM]	further results
COc1ccc(OC2CCN(c3nc4cnncc4nc3-c3cnn(C)c3)CC2)c(F)c1 [Compound 417, 4-(2-fluoro-4-methoxyphenoxy)-1-[3-(1-methyl-1H-pyrazol-4-yl)pyrazino[2,3-d]pyridazin-2-yl]piperidine]	1 to 30	0.1 to 1			
CC(=O)N1CC=C(c2nc3c(nc2N2CCC(Oc4ccc(F)cc4F)CC2)CCN(C(C)=O)C3)C1 [Compound 72, 1-(3-{6-acetyl-2-[4-(2,4-difluorophenoxy)piperidin-1-yl]-5H,6H,7H,8H-pyrido[3,4-b]pyrazin-3-yl}-2,5-dihydro-1H-pyrrol-1-yl)ethan-1-one]	1 to 30	1 to 30			
CC(C)(O)[C@@H](O)c1cc2nc(N3CCC(Oc4ccc(F)cc4F)CC3)c(-c3cnn(CF)c3)nc2cn1 (single isomer, unassigned) [Compound 597]					IC50 (GPR3; [3]): 1 to 30 µM; IC50 (GPR6; [4]): 0.1 to 1 µM
CCn1cc(-c2nc3cnc(C(O)C(C)(C)O)cc3nc2N2CCN(Cc3ccc(F)cc3F)CC2)cn1 (centres unmarked) [Compound 270, 1-(2-{4-[(2,4-difluorophenyl)methyl]piperazin-1-yl}-3-(1-ethyl-1H-pyrazol-4-yl)pyrido[3,4-b]pyrazin-7-yl)-2-methylpropane-1,2-diol]			1 to 30	0.1 to 1	
CCCn1cc(-c2nc3c(nc2N2CCC(Oc4ccc(F)cc4F)CC2)CCN(C(C)=O)C3)cn1 [Compound 312, 1-{2-[4-(2,4-difluorophenoxy)piperidin-1-yl]-3-(1-propyl-1H-pyrazol-4-yl)-5H,6H,7H,8H-pyrido[3,4-b]pyrazin-6-yl}ethan-1-one]			1 to 30	< 0.1	
COc1ccc(CNc2nc(-c3nc4c(nc3N3CCC(Cc5cc(F)ccc5F)CC3)CCN(C(C)=O)C4)ccc2F)cc1 [Compound 701, 1-(2-{4-[(2,5-difluorophenyl)methyl]-1-piperidyl}-3-(5-fluoro-6-{ [(p-methoxyphenyl)methyl]amino}-2-pyridyl)-5,6,7,8-tetrahydro-1,4,6-triaza-6-naphthyl)-1-ethanone]			1 to 30	1 to 30	
Cn1cc(-c2nc3cnc(OC4COC4)cc3nc2N2CCC(Oc3ccc(F)cc3F)CC2)cn1 [Compound 382, 4-(2,4-difluorophenoxy)-1-[3-(1-methyl-1H-pyrazol-4-yl)-7-(oxetan-3-yloxy)pyrido[3,4-b]pyrazin-2-yl]piperidine]	1 to 30	0.1 to 1			
C=CC(=O)N1CCc2nc(N3CCC(Oc4ccc(F)cc4F)CC3)c(-c3cn[nH]c3)nc2C1 [Compound 203, 1-{2-[4-(2,4-difluorophenoxy)piperidin-1-yl]-3-(1H-pyrazol-4-yl)-5H,6H,7H,8H-pyrido[3,4-b]pyrazin-6-yl}prop-2-en-1-one]	1 to 30	< 0.1			
Cn1cc(-c2nc3cnccc3nc2N2CCC(C)(Oc3ccc(F)cc3F)CC2)cn1 [Compound 188, 4-(2,4-difluorophenoxy)-4-methyl-1-[3-(1-methyl-1H-pyrazol-4-yl)pyrido[3,4-b]pyrazin-2-yl]piperidine]	1 to 30	0.1 to 1			
CC(=O)N1CCc2nc(N3CCC(Oc4ccc(Br)cn4)CC3)c(-c3cnn(C)c3)nc2C1 [Compound 513, 1-{2-[4-(5-bromo-2-pyridyloxy)-1-piperidyl]-3-(1-methyl-4-pyrazolyl)-5,6,7,8-tetrahydro-1,4,6-triaza-6-naphthyl}-1-ethanone]					IC50 (GPR3; [3]): 1 to 30 µM; IC50 (GPR6; [4]): 1 to 30 µM
COc1cncc(-c2nc3c(nc2N2CCC(Oc4ccc(F)cc4F)CC2)CCN(C(C)=O)C3)n1 [Compound 87, 1-{2-[4-(2,4-difluorophenoxy)piperidin-1-yl]-3-(6-methoxypyrazin-2-yl)-5H,6H,7H,8H-pyrido[3,4-b]pyrazin-6-yl}ethan-1-one]	1 to 30	0.1 to 1			
CC(C)(O)C(O)c1cc2nc(-c3cnn(CF)c3)c(N3CCC(Oc4ccc(F)cc4F)CC3)nc2cn1 (single isomer, unassigned) [Compound 593]					IC50 (GPR3; [3]): 0.1 to 1 µM; IC50 (GPR6; [4]): < 0.1 µM
CC(=O)N1CCc2nc(N3CCN(Cc4ccc(Cl)cc4F)CC3)c(-c3ccc(F)c(N)n3)nc2C1 [Compound 610, 1-[3-(6-amino-5-fluoro-2-pyridyl)-2-{4-[(4-chloro-2-fluorophenyl)methyl]-1-piperazinyl}-5,6,7,8-tetrahydro-1,4,6-triaza-6-naphthyl]-1-ethanone]			1 to 30	< 0.1	
Cn1cc(-c2nc3cnccc3nc2N2CCN(C(=O)c3ccc(F)cc3F)CC2)cn1 [Compound 128, (2,4-difluorophenyl)(4-(3-(1-methyl-1H-pyrazol-4-yl)pyrido[3,4-b]pyrazin-2-yl)piperazin-1-yl)methanone]	≥ 30	1 to 30			
